Source: the kinase profiling compilation of Christmann-Franck et al. (2016)

Assays:
Assay in all cases: radiometric filter-binding kinase assay, Kinase HotSpot
Conditions in all cases: compound 0.5 µM; ATP 10 µM
PAK6 (human) = PAK6 (human) (UniProt Q9NQU5)
AKT1 (human) = AKT1 (human) (UniProt P31749)
PIM2 (human) = PIM2 (human) (UniProt Q9P1W9)
CHEK1 (human) = CHEK1 (human) (UniProt O14757)
AKT2 (human) = AKT2 (human) (UniProt P31751)
MAPK3 (human) = MAPK3 (human) (UniProt P27361)
FRK (human) = FRK (human) (UniProt P42685)
ULK2 (human) = ULK2 (human) (UniProt Q8IYT8)
PNCK (human) = PNCK (human) (UniProt Q6P2M8)
EPHB3 (human) = EPHB3 (human) (UniProt P54753)
TXK (human) = TXK (human) (UniProt P42681)
MLTK (human) = MLTK (human) (UniProt Q9NYL2)
Sequence of MLTK (human) (Q9NYL2 whole entry, looked up): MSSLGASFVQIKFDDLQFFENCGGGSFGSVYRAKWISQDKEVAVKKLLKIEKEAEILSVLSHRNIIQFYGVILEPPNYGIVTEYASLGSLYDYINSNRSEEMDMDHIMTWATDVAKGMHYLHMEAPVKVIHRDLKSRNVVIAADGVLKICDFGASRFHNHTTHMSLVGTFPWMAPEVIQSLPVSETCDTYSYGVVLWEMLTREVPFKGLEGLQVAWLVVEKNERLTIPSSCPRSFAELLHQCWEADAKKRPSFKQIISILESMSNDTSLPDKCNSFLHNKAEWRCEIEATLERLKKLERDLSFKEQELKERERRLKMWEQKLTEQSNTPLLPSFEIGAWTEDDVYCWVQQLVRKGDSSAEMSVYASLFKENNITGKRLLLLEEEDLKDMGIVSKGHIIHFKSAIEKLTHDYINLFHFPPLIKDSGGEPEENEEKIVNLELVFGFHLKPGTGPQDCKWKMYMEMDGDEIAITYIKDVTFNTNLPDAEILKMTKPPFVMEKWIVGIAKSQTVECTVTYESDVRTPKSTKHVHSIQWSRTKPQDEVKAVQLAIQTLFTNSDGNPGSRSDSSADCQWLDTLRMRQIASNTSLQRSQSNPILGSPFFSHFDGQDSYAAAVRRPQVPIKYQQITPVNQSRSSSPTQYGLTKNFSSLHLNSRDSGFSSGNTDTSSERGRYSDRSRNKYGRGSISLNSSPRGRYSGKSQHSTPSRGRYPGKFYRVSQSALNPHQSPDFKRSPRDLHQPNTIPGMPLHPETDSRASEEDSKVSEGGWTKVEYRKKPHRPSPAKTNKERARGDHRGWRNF

FGFR3 (human) = FGFR3 (human) (UniProt P22607)
Sequence of FGFR3 (human) (P22607 whole entry, looked up): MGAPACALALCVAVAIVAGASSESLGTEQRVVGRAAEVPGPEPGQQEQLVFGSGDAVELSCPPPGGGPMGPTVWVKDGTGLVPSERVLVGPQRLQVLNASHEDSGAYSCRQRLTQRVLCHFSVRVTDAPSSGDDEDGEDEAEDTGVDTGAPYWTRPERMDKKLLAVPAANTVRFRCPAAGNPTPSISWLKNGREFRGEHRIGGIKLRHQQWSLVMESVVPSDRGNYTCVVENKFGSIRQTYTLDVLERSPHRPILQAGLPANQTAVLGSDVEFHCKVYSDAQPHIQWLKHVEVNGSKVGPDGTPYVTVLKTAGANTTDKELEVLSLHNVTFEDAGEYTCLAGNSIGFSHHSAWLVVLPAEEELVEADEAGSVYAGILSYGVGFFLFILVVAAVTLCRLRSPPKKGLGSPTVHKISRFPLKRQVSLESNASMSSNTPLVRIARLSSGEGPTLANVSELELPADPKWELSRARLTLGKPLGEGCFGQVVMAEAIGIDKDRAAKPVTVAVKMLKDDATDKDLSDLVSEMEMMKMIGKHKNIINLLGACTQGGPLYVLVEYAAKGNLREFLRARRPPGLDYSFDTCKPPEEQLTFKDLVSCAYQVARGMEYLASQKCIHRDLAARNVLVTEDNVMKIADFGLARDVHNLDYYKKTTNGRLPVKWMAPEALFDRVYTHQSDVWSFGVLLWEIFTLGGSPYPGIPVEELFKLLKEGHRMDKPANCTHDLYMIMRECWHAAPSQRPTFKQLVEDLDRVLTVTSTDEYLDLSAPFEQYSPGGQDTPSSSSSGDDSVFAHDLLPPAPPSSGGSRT

PIM1 (human) = PIM1 (human) (UniProt P11309)
Sequence of PIM1 (human) (P11309 whole entry, looked up): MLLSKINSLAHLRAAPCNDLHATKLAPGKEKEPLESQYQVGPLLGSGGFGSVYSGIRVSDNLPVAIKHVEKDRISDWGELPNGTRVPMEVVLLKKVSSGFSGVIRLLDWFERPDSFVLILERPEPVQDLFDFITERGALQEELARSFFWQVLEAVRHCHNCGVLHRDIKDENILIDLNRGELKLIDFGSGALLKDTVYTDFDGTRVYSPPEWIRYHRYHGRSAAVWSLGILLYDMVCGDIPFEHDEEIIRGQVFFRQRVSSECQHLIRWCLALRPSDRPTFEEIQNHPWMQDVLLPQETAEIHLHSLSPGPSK

IKBKE (human) = IKBKE (human) (UniProt Q14164)
Sequence of IKBKE (human) (Q14164 whole entry, looked up): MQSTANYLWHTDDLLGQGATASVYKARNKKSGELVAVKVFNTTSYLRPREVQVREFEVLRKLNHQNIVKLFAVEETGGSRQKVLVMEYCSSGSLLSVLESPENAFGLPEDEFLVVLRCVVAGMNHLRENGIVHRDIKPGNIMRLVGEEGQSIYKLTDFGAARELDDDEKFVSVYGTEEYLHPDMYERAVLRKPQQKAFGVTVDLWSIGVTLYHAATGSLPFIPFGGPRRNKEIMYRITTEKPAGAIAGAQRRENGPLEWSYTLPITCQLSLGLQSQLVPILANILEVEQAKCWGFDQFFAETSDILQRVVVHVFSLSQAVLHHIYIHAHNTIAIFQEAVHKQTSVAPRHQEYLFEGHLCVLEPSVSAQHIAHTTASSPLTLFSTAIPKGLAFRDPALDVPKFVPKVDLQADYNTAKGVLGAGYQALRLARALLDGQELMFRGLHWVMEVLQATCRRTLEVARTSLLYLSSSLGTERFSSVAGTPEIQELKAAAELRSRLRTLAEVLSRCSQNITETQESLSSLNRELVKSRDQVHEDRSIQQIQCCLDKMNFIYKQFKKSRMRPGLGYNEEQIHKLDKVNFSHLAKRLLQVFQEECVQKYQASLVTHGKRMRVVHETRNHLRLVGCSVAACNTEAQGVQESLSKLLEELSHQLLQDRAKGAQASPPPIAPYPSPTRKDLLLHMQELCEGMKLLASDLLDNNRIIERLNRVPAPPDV

TGFBR2 (human) = TGFBR2 (human) (UniProt P37173)
TSSK2 (human) = TSSK2 (human) (UniProt Q96PF2)
EPHB4 (human) = EPHB4 (human) (UniProt P54760)
Sequence of EPHB4 (human) (P54760 whole entry, looked up): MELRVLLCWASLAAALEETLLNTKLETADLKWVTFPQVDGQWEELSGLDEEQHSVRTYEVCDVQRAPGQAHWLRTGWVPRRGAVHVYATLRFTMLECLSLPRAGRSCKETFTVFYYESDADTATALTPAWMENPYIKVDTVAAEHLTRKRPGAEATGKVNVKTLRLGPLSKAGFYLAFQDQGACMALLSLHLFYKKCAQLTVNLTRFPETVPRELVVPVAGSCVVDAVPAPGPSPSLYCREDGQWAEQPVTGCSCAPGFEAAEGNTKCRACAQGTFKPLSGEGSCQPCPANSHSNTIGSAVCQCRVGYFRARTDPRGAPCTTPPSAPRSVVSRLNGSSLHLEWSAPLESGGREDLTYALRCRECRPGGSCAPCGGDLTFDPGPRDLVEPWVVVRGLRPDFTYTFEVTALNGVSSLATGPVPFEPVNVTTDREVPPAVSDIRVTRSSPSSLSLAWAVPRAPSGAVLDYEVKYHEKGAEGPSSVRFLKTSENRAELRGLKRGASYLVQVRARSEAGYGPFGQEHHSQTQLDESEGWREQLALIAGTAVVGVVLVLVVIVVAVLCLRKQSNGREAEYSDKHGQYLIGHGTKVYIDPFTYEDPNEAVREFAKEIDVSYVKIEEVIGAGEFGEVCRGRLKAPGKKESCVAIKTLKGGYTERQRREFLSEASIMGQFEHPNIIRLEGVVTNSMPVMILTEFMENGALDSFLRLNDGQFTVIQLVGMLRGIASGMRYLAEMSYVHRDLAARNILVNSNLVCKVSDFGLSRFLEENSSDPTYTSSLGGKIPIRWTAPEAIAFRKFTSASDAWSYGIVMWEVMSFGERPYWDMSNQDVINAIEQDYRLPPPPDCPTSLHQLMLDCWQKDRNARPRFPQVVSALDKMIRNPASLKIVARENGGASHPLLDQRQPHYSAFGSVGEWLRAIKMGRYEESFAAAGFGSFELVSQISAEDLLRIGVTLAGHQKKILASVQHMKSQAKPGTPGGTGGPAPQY

MAP3K5 (human) = MAP3K5 (human) (UniProt Q99683)
PLK1 (human) = PLK1 (human) (UniProt P53350)
MINK1 (human) = MINK1 (human) (UniProt Q8N4C8)
MAPK1 (human) = MAPK1 (human) (UniProt P28482)
MAPK9 (human) = MAPK9 (human) (UniProt P45984)
PDGFRB (human) = PDGFRB (human) (UniProt P09619)
PRKCA (human) = PRKCA (human) (UniProt P17252)
HIPK2 (human) = HIPK2 (human) (UniProt Q9H2X6)
EPHA7 (human) = EPHA7 (human) (UniProt Q15375)
PBK (human) = PBK (human) (UniProt Q96KB5)
PRKCI (human) = PRKCI (human) (UniProt P41743)
FES (human) = FES (human) (UniProt P07332)
MAP3K10 (human) = MAP3K10 (human) (UniProt Q02779)
CSNK1G2 (human) = CSNK1G2 (human) (UniProt P78368)
RPS6KA2 KD1 KD2 (human) = RPS6KA2 KD1 KD2 (human) (UniProt Q15349)
Sequence of RPS6KA2 KD1 KD2 (human) (Q15349 whole entry, looked up): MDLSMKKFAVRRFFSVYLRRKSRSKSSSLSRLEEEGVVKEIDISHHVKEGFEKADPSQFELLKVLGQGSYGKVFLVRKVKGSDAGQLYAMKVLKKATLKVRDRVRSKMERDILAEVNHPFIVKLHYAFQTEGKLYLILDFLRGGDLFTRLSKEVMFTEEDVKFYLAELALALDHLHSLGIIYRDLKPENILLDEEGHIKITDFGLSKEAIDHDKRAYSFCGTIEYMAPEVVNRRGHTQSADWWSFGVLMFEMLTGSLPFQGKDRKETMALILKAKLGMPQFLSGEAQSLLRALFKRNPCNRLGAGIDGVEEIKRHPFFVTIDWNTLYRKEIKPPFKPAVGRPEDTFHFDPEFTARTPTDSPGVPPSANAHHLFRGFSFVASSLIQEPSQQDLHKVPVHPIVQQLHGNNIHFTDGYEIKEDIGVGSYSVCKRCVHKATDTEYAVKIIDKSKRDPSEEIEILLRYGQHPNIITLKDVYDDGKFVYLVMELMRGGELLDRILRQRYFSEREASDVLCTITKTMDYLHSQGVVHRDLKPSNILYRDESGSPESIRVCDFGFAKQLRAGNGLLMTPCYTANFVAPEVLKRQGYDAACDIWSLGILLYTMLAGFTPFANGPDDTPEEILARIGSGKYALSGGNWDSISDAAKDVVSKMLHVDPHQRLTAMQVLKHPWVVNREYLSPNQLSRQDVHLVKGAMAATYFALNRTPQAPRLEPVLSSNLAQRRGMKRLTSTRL

MAPK8 (human) = MAPK8 (human) (UniProt P45983)
EPHA3 (human) = EPHA3 (human) (UniProt P29320)
MAP4K2 (human) = MAP4K2 (human) (UniProt Q12851)
RET (human) = RET (human) (UniProt P07949)
FLT1 (human) = FLT1 (human) (UniProt P17948)
SYK (human) = SYK (human) (UniProt P43405)
MAP3K9 (human) = MAP3K9 (human) (UniProt P80192)
HIPK1 (human) = HIPK1 (human) (UniProt Q86Z02)
PAK7 (human) = PAK7 (human) (UniProt Q9P286)

Compound: CN(C)S(=O)(=O)c1ccc2c(c1)/C(=C/c1cc3c([nH]1)CCCC3)C(=O)N2
- residual activity (PAK6 (human)): 98.9%
- residual activity (AKT1 (human)): 107%
- residual activity (PIM2 (human)): 108%
- residual activity (CHEK1 (human)): 76.3%
- residual activity (AKT2 (human)): 105%
- residual activity (MAPK3 (human)): 102%
- residual activity (FRK (human)): 86%
- residual activity (ULK2 (human)): 26.3%
- residual activity (PNCK (human)): 95.7%
- residual activity (EPHB3 (human)): 105%
- residual activity (TXK (human)): 96%
- residual activity (MLTK (human)): 99.4%
- residual activity (FGFR3 (human)): 57.1%
- residual activity (PIM1 (human)): 101%
- residual activity (IKBKE (human)): 87.9%
- residual activity (TGFBR2 (human)): 129%
- residual activity (TSSK2 (human)): 91.8%
- residual activity (EPHB4 (human)): 85.8%
- residual activity (MAP3K5 (human)): 106%
- residual activity (PLK1 (human)): 101%
- residual activity (MINK1 (human)): 83.8%
- residual activity (MAPK1 (human)): 101%
- residual activity (MAPK9 (human)): 104%
- residual activity (PDGFRB (human)): 96.5%
- residual activity (PRKCA (human)): 94.9%
- residual activity (HIPK2 (human)): 98.2%
- residual activity (EPHA7 (human)): 91.1%
- residual activity (PBK (human)): 99.7%
- residual activity (PRKCI (human)): 95.9%
- residual activity (FES (human)): 76.9%
- residual activity (MAP3K10 (human)): 99.1%
- residual activity (CSNK1G2 (human)): 93.8%
- residual activity (RPS6KA2 KD1 KD2 (human)): 52.8%
- residual activity (MAPK8 (human)): 91.1%
- residual activity (EPHA3 (human)): 98.6%
- residual activity (MAP4K2 (human)): 20.8%
- residual activity (RET (human)): 6.29%
- residual activity (FLT1 (human)): 84.9%
- residual activity (SYK (human)): 77.7%
- residual activity (MAP3K9 (human)): 74.6%

Compound: CS(=O)(=O)CCNCc1ccc(-c2ccc3ncnc(Nc4ccc(OCc5cccc(F)c5)c(Cl)c4)c3c2)o1
- residual activity (PAK6 (human)): 106%
- residual activity (AKT1 (human)): 95.6%
- residual activity (PIM2 (human)): 102%
- residual activity (CHEK1 (human)): 100%
- residual activity (AKT2 (human)): 105%
- residual activity (MAPK3 (human)): 94.8%
- residual activity (HIPK1 (human)): 97.1%
- residual activity (FRK (human)): 104%
- residual activity (ULK2 (human)): 104%
- residual activity (PNCK (human)): 98.1%
- residual activity (TXK (human)): 110%
- residual activity (MLTK (human)): 96.7%
- residual activity (FGFR3 (human)): 96.7%
- residual activity (PIM1 (human)): 99%
- residual activity (IKBKE (human)): 94.9%
- residual activity (TGFBR2 (human)): 96.1%
- residual activity (TSSK2 (human)): 89.9%
- residual activity (EPHB4 (human)): 94.1%
- residual activity (MAP3K5 (human)): 105%
- residual activity (PLK1 (human)): 99%
- residual activity (MINK1 (human)): 111%
- residual activity (MAPK1 (human)): 102%
- residual activity (MAPK9 (human)): 98.1%
- residual activity (PDGFRB (human)): 92%
- residual activity (PRKCA (human)): 83%
- residual activity (HIPK2 (human)): 104%
- residual activity (EPHA7 (human)): 95.6%
- residual activity (PBK (human)): 105%
- residual activity (PRKCI (human)): 106%
- residual activity (FES (human)): 104%
- residual activity (MAP3K10 (human)): 108%
- residual activity (CSNK1G2 (human)): 99.5%
- residual activity (RPS6KA2 KD1 KD2 (human)): 84%
- residual activity (MAPK8 (human)): 91.9%
- residual activity (EPHA3 (human)): 98.2%
- residual activity (PAK7 (human)): 98.5%
- residual activity (MAP4K2 (human)): 104%
- residual activity (RET (human)): 99.8%
- residual activity (FLT1 (human)): 100%
- residual activity (SYK (human)): 113%
- residual activity (MAP3K9 (human)): 112%

Compound: COc1ccc(Cl)cc1NC(=O)Nc1cc(C)nc2ccccc12
- residual activity (PAK6 (human)): 96.5%
- residual activity (AKT1 (human)): 95.8%
- residual activity (PIM2 (human)): 99.8%
- residual activity (CHEK1 (human)): 96.6%
- residual activity (AKT2 (human)): 94.9%
- residual activity (MAPK3 (human)): 94.6%
- residual activity (HIPK1 (human)): 97.2%
- residual activity (FRK (human)): 98.4%
- residual activity (ULK2 (human)): 106%
- residual activity (PNCK (human)): 98.7%
- residual activity (TXK (human)): 98.9%
- residual activity (MLTK (human)): 99.7%
- residual activity (FGFR3 (human)): 96.3%
- residual activity (PIM1 (human)): 98.1%
- residual activity (IKBKE (human)): 107%
- residual activity (TGFBR2 (human)): 111%
- residual activity (TSSK2 (human)): 94%
- residual activity (EPHB4 (human)): 93.7%
- residual activity (MAP3K5 (human)): 101%
- residual activity (PLK1 (human)): 96.9%
- residual activity (MINK1 (human)): 88.7%
- residual activity (MAPK1 (human)): 90.4%
- residual activity (MAPK9 (human)): 105%
- residual activity (PDGFRB (human)): 105%
- residual activity (PRKCA (human)): 132%
- residual activity (HIPK2 (human)): 101%
- residual activity (EPHA7 (human)): 99.7%
- residual activity (PBK (human)): 98.5%
- residual activity (PRKCI (human)): 99.4%
- residual activity (FES (human)): 101%
- residual activity (MAP3K10 (human)): 94.9%
- residual activity (CSNK1G2 (human)): 98.5%
- residual activity (RPS6KA2 KD1 KD2 (human)): 99.8%
- residual activity (MAPK8 (human)): 104%
- residual activity (EPHA3 (human)): 99.1%
- residual activity (PAK7 (human)): 85.1%
- residual activity (MAP4K2 (human)): 114%
- residual activity (RET (human)): 102%
- residual activity (FLT1 (human)): 86.2%
- residual activity (SYK (human)): 88.2%
- residual activity (MAP3K9 (human)): 98.6%

Compound: CN(C)CCCn1cc(C2=C(c3c[nH]c4ccccc34)C(=O)NC2=O)c2ccccc21
- residual activity (PAK6 (human)): 101%
- residual activity (AKT1 (human)): 93.5%
- residual activity (PIM2 (human)): 64.1%
- residual activity (CHEK1 (human)): 39.1%
- residual activity (AKT2 (human)): 88.7%
- residual activity (MAPK3 (human)): 108%
- residual activity (HIPK1 (human)): 96.6%
- residual activity (FRK (human)): 92.3%
- residual activity (ULK2 (human)): 145%
- residual activity (PNCK (human)): 106%
- residual activity (EPHB3 (human)): 95.2%
- residual activity (TXK (human)): 107%
- residual activity (MLTK (human)): 93.1%
- residual activity (FGFR3 (human)): 87.9%
- residual activity (IKBKE (human)): 89.4%
- residual activity (TGFBR2 (human)): 90.4%
- residual activity (TSSK2 (human)): 97.3%
- residual activity (EPHB4 (human)): 86.8%
- residual activity (MAP3K5 (human)): 90.2%
- residual activity (PLK1 (human)): 101%
- residual activity (MINK1 (human)): 92.1%
- residual activity (MAPK1 (human)): 100%
- residual activity (MAPK9 (human)): 98.7%
- residual activity (PDGFRB (human)): 78.1%
- residual activity (PRKCA (human)): 6.27%
- residual activity (HIPK2 (human)): 77.5%
- residual activity (EPHA7 (human)): 97%
- residual activity (PBK (human)): 81.3%
- residual activity (PRKCI (human)): 55.9%
- residual activity (FES (human)): 90.9%
- residual activity (MAP3K10 (human)): 81.8%
- residual activity (CSNK1G2 (human)): 90.3%
- residual activity (RPS6KA2 KD1 KD2 (human)): 1.4%
- residual activity (MAPK8 (human)): 90.2%
- residual activity (EPHA3 (human)): 93%
- residual activity (PAK7 (human)): 92.8%
- residual activity (MAP4K2 (human)): 94.2%
- residual activity (RET (human)): 93.4%
- residual activity (FLT1 (human)): 78.1%
- residual activity (SYK (human)): 90%
- residual activity (MAP3K9 (human)): 46%

Compound: NC(=O)c1cccc(-c2cc(Nc3ccc(OC(F)(F)F)cc3)ncn2)c1
- residual activity (PAK6 (human)): 102%
- residual activity (PIM2 (human)): 115%
- residual activity (CHEK1 (human)): 94.2%
- residual activity (AKT2 (human)): 105%
- residual activity (MAPK3 (human)): 94.5%
- residual activity (HIPK1 (human)): 102%
- residual activity (FRK (human)): 95.5%
- residual activity (ULK2 (human)): 103%
- residual activity (PNCK (human)): 109%
- residual activity (EPHB3 (human)): 98%
- residual activity (TXK (human)): 111%
- residual activity (MLTK (human)): 102%
- residual activity (FGFR3 (human)): 93.2%
- residual activity (PIM1 (human)): 101%
- residual activity (IKBKE (human)): 107%
- residual activity (TGFBR2 (human)): 94.9%
- residual activity (TSSK2 (human)): 97%
- residual activity (EPHB4 (human)): 90.6%
- residual activity (MAP3K5 (human)): 90.3%
- residual activity (PLK1 (human)): 97.7%
- residual activity (MAPK1 (human)): 96.6%
- residual activity (PDGFRB (human)): 94.8%
- residual activity (PRKCA (human)): 77.4%
- residual activity (HIPK2 (human)): 102%
- residual activity (EPHA7 (human)): 99.1%
- residual activity (PBK (human)): 72.2%
- residual activity (PRKCI (human)): 99.6%
- residual activity (FES (human)): 96.3%
- residual activity (MAP3K10 (human)): 95.4%
- residual activity (CSNK1G2 (human)): 89.5%
- residual activity (RPS6KA2 KD1 KD2 (human)): 96.2%
- residual activity (MAPK8 (human)): 90.3%
- residual activity (EPHA3 (human)): 97.5%
- residual activity (PAK7 (human)): 88.1%
- residual activity (MAP4K2 (human)): 132%
- residual activity (RET (human)): 105%
- residual activity (FLT1 (human)): 98.4%
- residual activity (SYK (human)): 99.9%
- residual activity (MAP3K9 (human)): 95.7%
